Experimental data: patent publication US20040198973A1, “Process for preparation of carbapenem antibiotics” (priority 2001, published 2004)

Columns and labels:
Pseudomonas aeruginosa = conditions: Document 1: Drug of the Future, 1996, 21(4): 361-365; cited from earlier work
[1] = Solubility of starting compound 1 in organic solvents; type: physicochemical
Text: The process described in Document 3 (Kohichi Hirai, Hiroshi Maruyama, Journal of Synthetic Organic Chemistry, Japan, 57, 383 (1999)) is the one for implementing such a procedure wherein a side chain part including amine is first condensed with parent derived from azetidinone, then, an active ester is introduced into the condensate, and thereafter, the resulting product is subjected to ring-closing reaction to form a lactam ring. However, a compound into which an active ester has been already introduced, p-nitrobenzyl(1R,5S,6S)-2-diphenoxyphosphoryloxy-6-[(R)-1-hydroxyethyl]-1-methyl-1-carbapen-2-em-3-carboxylate (starting compound 1) is industrially available recently at an affordable price as a starting material for parent of carbapenem, so that the starting material has been replaced by the above-described compound. However, solubility of the starting compound 1 is high in a high boiling point solvent such as dimethylformamide and dimethylsulfoxide, while it is low in a solvent having a low boiling point such as tetrahydrofuran and acetonitrile, as well as in aromatic solvents such as toluene (see the following Table 1). Under the circumstances, when a high boiling point solvent is used, a difficulty in industrial level arises in case of removing the high boiling point solvent as described later in detail. For this reason, there are many cases wherein the above-described starting compound 1 cannot be applied to the process of Document 3.

For `C[C@@H](O)[C@H]1C(=O)N2C(C(=O)O)=C(S[C@@H]3CN[C@H]([C@H](O)[C@@H]4CCNC4)C3)[C@H](C)[C@H]12`, the antimicrobial action (Pseudomonas aeruginosa) is given as “excellent antimicrobial action”.
Work on `C[C@@H](O)[C@H]1C(=O)N2C(C(=O)OCc3ccc([N+](=O)[O-])cc3)=C(OP(=O)(Oc3ccccc3)Oc3ccccc3)[C@H](C)[C@@H]12` [p-nitrobenzyl(1R,5S,6S)-2-diphenoxyphosphoryloxy-6-[(R)-1-hydroxyethyl]-1-methyl-1-carbapen-2-em-3-carboxylate] yielded a Solubility ([1]; Acetonitrile, at 20° C., solvent volume per 0.1 g) of 0.6 ML/0.1 g, a Solubility ([1]; Dimethylformamide, at 20° C., solvent volume per 0.1 g) of under 0.1 ML/0.1 g and a Solubility ([1]; Methylsulfoxide, at 20° C., solvent volume per 0.1 g) of under 0.1 ML/0.1 g. The Solubility ([1]; Tetrahydrofuran, at 20° C., solvent volume per 0.1 g) was 0.6 ML/0.1 g, the Solubility ([1]; Toluene, at 20° C., solvent volume per 0.1 g) was over 10 ML/0.1 g and the Solubility ([1]; in a high boiling point solvent such as dimethylformamide and dimethylsulfoxide) was “high”. For the same molecule, the Solubility ([1]; in a low boiling point solvent such as tetrahydrofuran and acetonitrile, and aromatic solvents such as toluene) was “low”.
